{"source": "patent US9446039B2", "about": "“Aminoheteroaryl compounds as MTH1 inhibitors” (CEMM—FORSCHUNGSZENTRUM FÜR MOLEKULARE MEDIZIN GMBH, priority 2012, dated 2016)", "type_in_all_cases": "binding", "key": {"[1]": {"target": "SW480 colon carcinoma cells lysate proteins (Homo sapiens, UniProt P53999)", "conditions": "PreyGene SUB1"}, "[2]": {"target": "T1, SW480 colon carcinoma cells lysate proteins (Homo sapiens, UniProt Q9H9Z2)", "T1 sequence (Q9H9Z2 1-209)": "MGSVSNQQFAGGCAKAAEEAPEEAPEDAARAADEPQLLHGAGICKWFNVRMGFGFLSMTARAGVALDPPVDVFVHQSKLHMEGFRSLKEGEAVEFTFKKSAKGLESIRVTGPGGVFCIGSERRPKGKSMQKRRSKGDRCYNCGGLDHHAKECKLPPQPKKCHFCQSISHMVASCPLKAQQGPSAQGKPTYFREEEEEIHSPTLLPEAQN", "conditions": "PreyGene LIN28A"}, "[3]": {"target": "T2, SW480 colon carcinoma cells lysate proteins (Homo sapiens, UniProt P21980)", "T2 sequence (P21980 1-687)": "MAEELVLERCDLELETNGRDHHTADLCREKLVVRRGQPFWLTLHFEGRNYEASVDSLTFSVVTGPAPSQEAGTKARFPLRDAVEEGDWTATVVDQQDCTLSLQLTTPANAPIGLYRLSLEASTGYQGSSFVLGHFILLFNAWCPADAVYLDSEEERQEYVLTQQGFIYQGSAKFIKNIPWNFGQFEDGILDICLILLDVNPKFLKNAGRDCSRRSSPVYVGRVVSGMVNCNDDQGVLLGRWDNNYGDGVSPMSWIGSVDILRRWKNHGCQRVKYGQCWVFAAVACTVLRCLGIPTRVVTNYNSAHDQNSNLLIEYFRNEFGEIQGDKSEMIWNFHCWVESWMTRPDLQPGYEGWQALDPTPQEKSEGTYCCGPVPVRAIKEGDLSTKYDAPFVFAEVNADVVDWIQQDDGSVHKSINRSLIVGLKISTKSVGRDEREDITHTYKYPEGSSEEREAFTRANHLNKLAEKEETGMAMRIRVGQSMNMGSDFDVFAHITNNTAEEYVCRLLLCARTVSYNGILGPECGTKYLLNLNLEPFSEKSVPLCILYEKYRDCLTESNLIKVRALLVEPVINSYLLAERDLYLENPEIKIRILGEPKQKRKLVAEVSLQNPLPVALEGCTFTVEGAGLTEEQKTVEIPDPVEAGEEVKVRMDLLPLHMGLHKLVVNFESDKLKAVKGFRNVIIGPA", "conditions": "PreyGene TGM2"}, "[4]": {"target": "T3, SW480 colon carcinoma cells lysate proteins (Homo sapiens, UniProt Q9NSD9)", "T3 sequence (Q9NSD9 1-589)": "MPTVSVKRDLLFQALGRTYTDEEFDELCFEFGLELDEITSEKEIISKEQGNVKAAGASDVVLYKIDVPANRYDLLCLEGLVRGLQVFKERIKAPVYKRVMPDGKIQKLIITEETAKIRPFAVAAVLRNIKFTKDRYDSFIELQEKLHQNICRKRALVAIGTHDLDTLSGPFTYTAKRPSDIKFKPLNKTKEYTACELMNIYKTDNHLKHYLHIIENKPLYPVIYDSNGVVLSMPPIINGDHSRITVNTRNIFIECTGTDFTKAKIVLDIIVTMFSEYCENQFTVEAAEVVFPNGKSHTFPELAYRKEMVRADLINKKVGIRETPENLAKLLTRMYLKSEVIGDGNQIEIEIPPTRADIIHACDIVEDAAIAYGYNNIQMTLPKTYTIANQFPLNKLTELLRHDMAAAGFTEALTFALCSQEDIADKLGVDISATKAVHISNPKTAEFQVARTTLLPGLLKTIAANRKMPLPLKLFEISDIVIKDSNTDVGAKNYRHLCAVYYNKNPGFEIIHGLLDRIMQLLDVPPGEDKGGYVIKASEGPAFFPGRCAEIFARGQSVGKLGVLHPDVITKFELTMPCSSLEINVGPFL", "conditions": "PreyGene FARSB"}, "[5]": {"target": "SW480 colon carcinoma cells lysate proteins (Homo sapiens, UniProt P68363)", "sequence (P68363 whole entry)": "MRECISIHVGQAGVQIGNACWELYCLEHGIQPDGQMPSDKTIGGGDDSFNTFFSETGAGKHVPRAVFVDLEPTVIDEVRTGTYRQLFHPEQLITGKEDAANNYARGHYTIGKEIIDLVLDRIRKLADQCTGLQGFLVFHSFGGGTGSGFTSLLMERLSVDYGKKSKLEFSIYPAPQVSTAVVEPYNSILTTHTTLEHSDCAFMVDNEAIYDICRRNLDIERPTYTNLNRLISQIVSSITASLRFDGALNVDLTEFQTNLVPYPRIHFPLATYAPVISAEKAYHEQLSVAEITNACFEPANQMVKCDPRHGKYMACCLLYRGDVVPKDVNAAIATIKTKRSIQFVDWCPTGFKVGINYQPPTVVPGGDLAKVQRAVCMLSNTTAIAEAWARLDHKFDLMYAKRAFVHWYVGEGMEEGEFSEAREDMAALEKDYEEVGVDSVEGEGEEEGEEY", "conditions": "PreyGene TUBA1B; SW480 cells"}, "[6]": {"target": "SW480 colon carcinoma cells lysate proteins (Homo sapiens, UniProt O43707)", "sequence (O43707 whole entry)": "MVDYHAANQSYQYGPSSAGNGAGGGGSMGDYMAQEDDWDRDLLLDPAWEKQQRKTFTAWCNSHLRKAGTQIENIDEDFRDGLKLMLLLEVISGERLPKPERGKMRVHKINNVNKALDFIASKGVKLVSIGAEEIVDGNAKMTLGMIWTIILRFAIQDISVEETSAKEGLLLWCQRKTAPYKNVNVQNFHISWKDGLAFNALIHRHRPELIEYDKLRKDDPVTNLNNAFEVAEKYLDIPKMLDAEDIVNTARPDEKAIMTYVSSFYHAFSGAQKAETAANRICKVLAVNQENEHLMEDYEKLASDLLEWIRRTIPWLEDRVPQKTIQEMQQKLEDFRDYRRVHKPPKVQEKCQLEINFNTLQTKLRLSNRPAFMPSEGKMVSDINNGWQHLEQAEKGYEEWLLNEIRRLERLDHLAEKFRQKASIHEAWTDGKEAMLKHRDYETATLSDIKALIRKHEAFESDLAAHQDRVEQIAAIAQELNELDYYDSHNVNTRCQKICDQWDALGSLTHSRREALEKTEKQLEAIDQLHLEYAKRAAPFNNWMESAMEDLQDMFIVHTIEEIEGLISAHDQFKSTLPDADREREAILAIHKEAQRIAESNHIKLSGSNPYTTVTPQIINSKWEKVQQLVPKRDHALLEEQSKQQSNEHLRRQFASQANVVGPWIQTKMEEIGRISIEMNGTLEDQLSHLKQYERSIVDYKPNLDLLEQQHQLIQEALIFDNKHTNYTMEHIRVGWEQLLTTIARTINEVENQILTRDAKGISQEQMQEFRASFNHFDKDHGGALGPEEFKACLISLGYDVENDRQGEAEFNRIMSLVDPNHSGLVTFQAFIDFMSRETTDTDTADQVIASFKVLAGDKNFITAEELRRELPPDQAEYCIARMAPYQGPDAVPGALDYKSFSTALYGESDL", "conditions": "PreyGene ACTN4"}}, "data": [{"smiles": "C[C@H](Oc1cc(-c2cnn(C3CCNCC3)c2)cnc1N)c1c(Cl)ccc(F)c1Cl", "note": "[(5)-crizotinib]", "values": [{"measurement": "AvgP", "setting": "[1]", "result": 0.206}, {"measurement": "SC.Exp. 1-1", "setting": "[1]", "result": 5}, {"measurement": "SC.Exp. 1-2", "setting": "[1]", "result": 5}, {"measurement": "SC.Exp. 2-1", "setting": "[1]", "result": 2}, {"measurement": "SC.Exp. 2-2", "setting": "[1]", "result": 4}, {"measurement": "Sum (SC.Exp.)", "setting": "[1]", "result": 16}, {"measurement": "AvgP", "setting": "[2]", "result": 0.3021}, {"measurement": "SC.Exp. 1-1", "setting": "[2]", "result": 2}, {"measurement": "SC.Exp. 1-2", "setting": "[2]", "result": 2}, {"measurement": "SC.Exp. 2-1", "setting": "[2]", "result": 2}, {"measurement": "SC.Exp. 2-2", "setting": "[2]", "result": 0}, {"measurement": "Sum (SC.Exp.)", "setting": "[2]", "result": 6}, {"measurement": "AvgP", "setting": "[3]", "result": 0.2455}, {"measurement": "SC.Exp. 1-1", "setting": "[3]", "result": 6}, {"measurement": "SC.Exp. 1-2", "setting": "[3]", "result": 5}, {"measurement": "SC.Exp. 2-1", "setting": "[3]", "result": 0}, {"measurement": "SC.Exp. 2-2", "setting": "[3]", "result": 0}, {"measurement": "Sum (SC.Exp.)", "setting": "[3]", "result": 11}, {"measurement": "AvgP", "setting": "[4]", "result": 0.3413}, {"measurement": "SC.Exp. 1-1", "setting": "[4]", "result": 3}, {"measurement": "SC.Exp. 1-2", "setting": "[4]", "result": 2}, {"measurement": "SC.Exp. 2-1", "setting": "[4]", "result": 0}, {"measurement": "SC.Exp. 2-2", "setting": "[4]", "result": 0}, {"measurement": "Sum (SC.Exp.)", "setting": "[4]", "result": 5}, {"measurement": "AvgP", "setting": "[5]", "result": 0}, {"measurement": "SC.Exp. 1-1", "setting": "[5]", "result": 1}, {"measurement": "SC.Exp. 1-2", "setting": "[5]", "result": 1}, {"measurement": "SC.Exp. 2-1", "setting": "[5]", "result": 0}, {"measurement": "SC.Exp. 2-2", "setting": "[5]", "result": 0}, {"measurement": "SC.Exp. Sum", "setting": "[5]", "result": 2}, {"measurement": "AvgP", "setting": "[6]", "result": 0.2923}, {"measurement": "SC.Exp. 1-1", "setting": "[6]", "result": 4}, {"measurement": "SC.Exp. 1-2", "setting": "[6]", "result": 4}, {"measurement": "SC.Exp. 2-1", "setting": "[6]", "result": 0}, {"measurement": "SC.Exp. 2-2", "setting": "[6]", "result": 0}, {"measurement": "Sum (SC.Exp.)", "setting": "[6]", "result": 8}]}]}
